# Assay results: article PMC11191095, “QSAR Reveals Decreased Lipophilicity of Polar Residues Determines the Selectivity of Antimicrobial Peptide Activity” (ACS Omega, 2024)
# Where a SMILES comes first, the peptide text is derived from it.
# Tests used:
# Assay in all cases: microbe, parasite or virus in culture
# [1] = test system: E. coli LEC001; assay type: cell-based, Escherichia coli; details: E. coli LEC001 (R); shown in µM
# How it was run: (§1)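 Peptides 128→2 μg/mL, 2-fold series; inoculum ~5 × 10^5 CFU/mL from overnight culture (OD600 0.01, mixed 1:1). MHB non-cation-adjusted for bacteria, RPMI 1640 + 2% glucose for fungi. 37 °C, 20 h, OD600. MIC50/MIC90 at 50%/90% inhibition; n ≥ 3.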
# [2] = test system: E. coli NCTC 12923; assay type: cell-based, Escherichia coli; details: E. coli NCTC 12923 (S); shown in µM
# How it was run: as §1
# [3] = test system: P. aeruginosa NCTC 13437; assay type: cell-based, Pseudomonas aeruginosa; details: P. aeruginosa NCTC 13437 (R)
# Description: (§2) Antimicrobial activity was evaluated against a panel of 18 pathogens consisting of eight Gram-negative strains (E. coli NCTC 12923, E. coli LEC001, Pseudomonas aeruginosa PAO1, P. aeruginosa NCTC 13437, Acinetobacter baumannii ATCC 17978, A. baumannii AYE, Klebsiella pneumoniae M6, K. pneumoniae NCTC 13368), four Gram-positive strains (Staphylococcus aureus ATCC 9144, S. aureus NCTC 13616, S. aureus USA300, S. aureus 1199B) and six fungi (Candida auris TDG 1912, C. albicans NCPF 8018, C. krusei NCPF 3876, C. tropicalis NCPF 8760, and C. parapsilosis NCPF 3209). Pathogens were grown in noncation adjusted Mueller Hinton broth (MHB, for bacteria) or Roswell Park Memorial Institute (RPMI 1640) + 2% glucose (for fungi) at 37 °C with 180 rpm shaking and maintained on solid media (tryptic soy agar for bacteria and Sabouraud dextrose agar for fungi). For an antibiogram, see Suppl.
# (§3) The 46 peptides were serially diluted (128 to 2 μg/mL) in media down polypropylene 96-well plates. Bacteria or fungi, diluted from an overnight culture to an OD600 of 0.01, were added to the serially diluted peptides at a 1:1 ratio resulting in a starting cell density of ∼5 × 10^5 CFU/mL. Plates were incubated at 37 °C for 20 h, and the optical density was determined spectrophotometrically at 600 nm. Minimum inhibition concentrations (MICs) were determined from a minimum of three biological repeats and are reported in μg/mL as well as μM. […] The MIC50 or MIC90 is defined as the lowest peptide concentration that results in 50% or 90% growth inhibition over a 20 h treatment period, respectively.
# [4] = test system: P. aeruginosa PAO1; assay type: cell-based, Pseudomonas aeruginosa; details: P. aeruginosa PAO1 (S)
# Description: as §2, §3
# [5] = test system: A. baumannii ATCC 17978; assay type: cell-based, Acinetobacter baumannii; details: A. baumannii ATCC 17978 (S); shown in µM
# How it was run: as §1
# [6] = test system: A. baumannii AYE; assay type: cell-based, Acinetobacter baumannii; details: A. baumannii AYE (R); shown in µM
# How it was run: as §1
# [7] = test system: K. pneumoniae M6; assay type: cell-based, Klebsiella pneumoniae; details: K. pneumoniae M6 (S)
# Description: as §2, §3
# [8] = test system: K. pneumoniae NCTC 13368; assay type: cell-based, Klebsiella pneumoniae; details: K. pneumoniae NCTC 13368 (R)
# Description: as §2, §3
# [9] = test system: S. aureus (MRSA) 1199B; assay type: cell-based, Staphylococcus aureus; details: S. aureus (MRSA) 1199B (R)
# How it was run: as §1
# [10] = test system: S. aureus (MRSA) NCTC 13616; assay type: cell-based, Staphylococcus aureus; details: S. aureus (MRSA) NCTC 13616 (R)
# How it was run: as §1
# [11] = test system: S. aureus (MRSA) USA300; assay type: cell-based, Staphylococcus aureus; details: S. aureus (MRSA) USA300 (R)
# How it was run: as §1
# [12] = test system: S. aureus (MSSA) ATCC 9144; assay type: cell-based, Staphylococcus aureus; details: S. aureus (MSSA) ATCC 9144 (S); shown in µM
# How it was run: as §1
# [13] = test system: C. auris TDG 1912; assay type: cell-based, Candida auris; details: C. auris TDG 1912
# How it was run: as §1
# [14] = test system: C. albicans NCPF 3281; assay type: cell-based; details: C. albicans NCPF 3281
# How it was run: as §1
# [15] = test system: C. glabrata NCPF 8018; assay type: cell-based; details: C. glabrata NCPF 8018
# How it was run: as §1
# [16] = test system: C. krusei NCPF 3876; assay type: cell-based; details: C. krusei NCPF 3876
# How it was run: as §1
# [17] = test system: C. parapsilosis NCPF 3209; assay type: cell-based; details: C. parapsilosis NCPF 3209
# How it was run: as §1
# [18] = test system: C. tropicalis NCPF 8760; assay type: cell-based; details: C. tropicalis NCPF 8760
# How it was run: as §1
# [19] = MHB, 37 °C, 20 h, OD600, min. three biological repeats
# [20] = 50% growth inhibition, RPMI 1640 + 2% glucose, 37 °C, 20 h, OD600
# [21] = 90% growth inhibition, RPMI 1640 + 2% glucose, 37 °C, 20 h, OD600
# [22] = 50% growth inhibition, RPMI 1640 + 2% glucose, 37 °C, 20 h
# [23] = 90% growth inhibition, RPMI 1640 + 2% glucose, 37 °C, 20 h
compound,measurement,setting,value
CC[C@H](C)[C@H](NC(=O)[C@H](C)NC(=O)CNC(=O)[C@H](C)NC(=O)[C@H](CCCCN)NC(=O)[C@H](CO)NC(=O)[C@H](C)NC(=O)[C@H](CCSC)NC(=O)CN)C(=O)N[C@@H](C)C(=O)NCC(=O)N[C@@H](CCCCN)C(=O)N[C@H](C(=O)N[C@@H](C)C(=O)N[C@@H](CCCCN)C(=O)N[C@H](C(=O)N[C@@H](C)C(=O)N[C@@H](CC(C)C)C(=O)N[C@@H](CCCCN)C(=O)N[C@@H](C)C(=O)N[C@@H](CC(C)C)C(N)=O)C(C)C)[C@@H](C)CC [DRAMP02272a] (H-GMASKAGAIAGKIAKVALKAL-NH2),Modal MIC,[1],4 µM
same,Modal MIC,[2],2 µM
same,Modal MIC,[3]; [19],> 128 µg/mL
same,Modal MIC,[3]; shown in µM,> 64 µM
same,Modal MIC,[4]; [19],> 128 µg/mL
same,Modal MIC,[4]; shown in µM,> 64 µM
same,Modal MIC,[5],2 µM
same,Modal MIC,[6],1 µM
same,Modal MIC,[7]; shown in µM,16 µM
same,Modal MIC,[8]; shown in µM,32 µM
same,Modal MIC,[9]; shown in µM,32 µM
same,Modal MIC,[10]; shown in µM,8 µM
same,Modal MIC,[11]; shown in µM,16 µM
same,Modal MIC,[12],4 µM
same,Modal MIC50,[13]; [20],> 128 µg/mL
same,Modal MIC90,[13]; [21],> 128 µg/mL
same,Modal MIC50,[13]; shown in µM,> 64 µM
same,Modal MIC90,[13]; shown in µM,> 64 µM
same,Modal MIC50,[14]; [22],> 128 µg/mL
same,Modal MIC90,[14]; [23],> 128 µg/mL
same,Modal MIC50,[14]; shown in µM,> 64 µM
same,Modal MIC90,[14]; shown in µM,> 64 µM
same,Modal MIC50,[15]; [22],> 128 µg/mL
same,Modal MIC90,[15]; [23],> 128 µg/mL
same,Modal MIC50,[15]; shown in µM,> 64 µM
same,Modal MIC90,[15]; shown in µM,> 64 µM
same,Modal MIC50,[16]; shown in µM,64 µM
same,Modal MIC90,[16]; shown in µM,64 µM
same,Modal MIC50,[17]; [22],> 128 µg/mL
same,Modal MIC90,[17]; [23],> 128 µg/mL
same,Modal MIC50,[17]; shown in µM,> 64 µM
same,Modal MIC90,[17]; shown in µM,> 64 µM
same,Modal MIC50,[18]; shown in µM,16 µM
same,Modal MIC90,[18]; shown in µM,16 µM
CC(C)C[C@H](NC(=O)[C@H](CCCCN)NC(=O)[C@H](CCCCN)NC(=O)[C@H](C)NC(=O)[C@H](CC(C)C)NC(=O)[C@H](CCCCN)NC(=O)[C@H](CO)NC(=O)[C@H](CCCCN)NC(=O)[C@H](Cc1c[nH]c2ccccc12)NC(=O)[C@H](C)NC(=O)[C@H](CCCCN)NC(=O)[C@H](CCCCN)NC(=O)[C@H](CC(C)C)NC(=O)[C@H](Cc1ccccc1)NC(=O)[C@H](CO)NC(=O)CN)C(N)=O [PS-PB-16a] (H-GSFLKKAWKSKLAKKL-NH2),Modal MIC,[1],33.9 µM
same,Modal MIC,[2],8.5 µM
same,Modal MIC,[3]; shown in µM,67.8 µM
same,Modal MIC,[4]; shown in µM,33.9 µM
same,Modal MIC,[5],8.5 µM
same,Modal MIC,[6],17 µM
same,Modal MIC,[7]; [19],> 128 µg/mL
same,Modal MIC,[7]; shown in µM,> 67.8 µM
same,Modal MIC,[8]; [19],> 128 µg/mL
same,Modal MIC,[8]; shown in µM,> 67.8 µM
same,Modal MIC,[9]; [19],> 128 µg/mL
same,Modal MIC,[9]; shown in µM,> 67.8 µM
same,Modal MIC,[10]; [19],> 128 µg/mL
same,Modal MIC,[10]; shown in µM,> 67.8 µM
same,Modal MIC,[11]; [19],> 128 µg/mL
same,Modal MIC,[11]; shown in µM,> 67.8 µM
same,Modal MIC,[12],17 µM
same,Modal MIC50,[13]; [20],> 128 µg/mL
same,Modal MIC90,[13]; [21],> 128 µg/mL
same,Modal MIC50,[13]; shown in µM,> 67.8 µM
same,Modal MIC90,[13]; shown in µM,> 67.8 µM
same,Modal MIC50,[14]; [22],> 128 µg/mL
same,Modal MIC90,[14]; [23],> 128 µg/mL
same,Modal MIC50,[14]; shown in µM,> 67.8 µM
same,Modal MIC90,[14]; shown in µM,> 67.8 µM
same,Modal MIC50,[15]; [22],> 128 µg/mL
same,Modal MIC90,[15]; [23],> 128 µg/mL
same,Modal MIC50,[15]; shown in µM,> 67.8 µM
same,Modal MIC90,[15]; shown in µM,> 67.8 µM
same,Modal MIC50,[16]; [22],> 128 µg/mL
same,Modal MIC90,[16]; [23],> 128 µg/mL
same,Modal MIC50,[16]; shown in µM,> 67.8 µM
same,Modal MIC90,[16]; shown in µM,> 67.8 µM
same,Modal MIC50,[17]; [22],> 128 µg/mL
same,Modal MIC90,[17]; [23],> 128 µg/mL
same,Modal MIC50,[17]; shown in µM,> 67.8 µM
same,Modal MIC90,[17]; shown in µM,> 67.8 µM
same,Modal MIC50,[18]; [22],> 128 µg/mL
same,Modal MIC90,[18]; [23],> 128 µg/mL
same,Modal MIC50,[18]; shown in µM,> 67.8 µM
same,Modal MIC90,[18]; shown in µM,> 67.8 µM
